Experimental data taken from ChEMBL document CHEMBL5331050, “Spiro[benzoxazine-piperidin]-one derivatives as chitin synthase inhibitors and antifungal agents: Design, synthesis and biological evaluation” (Eur J Med Chem, 2022).
In brackets after ≈: the same amount, converted by molar mass.

Key:
[1] = system: Cryptococcus neoformans; test: Antifungal activity against Cryptococcus neoformans ATCC 208821 assessed as fungal growth inhibition incubated for 24 hrs by CLSI protocol based broth microdilution method; assay type: functional
[2] = system: Candida albicans; test: Antifungal activity against Candida albicans ATCC 76615 assessed as disruption of fungal wall by measuring fungal growth incubated for 24 hrs in the presence of sorbitol; assay type: functional
[3] = Inhibition of Candida tropicalis ATCC 750 chitin synthase using UDP-GlcNAc as substrate incubated for 1 hrs by absorbance based assay
[4] = system: Aspergillus fumigatus; test: Antifungal activity against Aspergillus fumigatus GIMCC 3.19 assessed as fungal growth inhibition incubated for 24 hrs by CLSI protocol based broth microdilution method; assay type: functional
[5] = system: Aspergillus fumigatus; test: Antifungal activity against Aspergillus fumigatus GIMCC 3.19 assessed as disruption of fungal wall by measuring fungal growth incubated for 24 hrs in the presence of sorbitol; assay type: functional
[6] = system: Aspergillus flavus; test: Antifungal activity against Aspergillus flavus ATCC 16870 assessed as fungal growth inhibition incubated for 24 hrs by CLSI protocol based broth microdilution method; assay type: functional
[7] = system: Candida albicans; test: Antifungal activity against Candida albicans ATCC 76615 assessed as fungal growth inhibition incubated for 24 hrs by CLSI protocol based broth microdilution method; assay type: functional
[8] = system: Aspergillus flavus; test: Antifungal activity against Aspergillus flavus ATCC 16870 assessed as disruption of fungal wall by measuring fungal growth incubated for 24 hrs in the presence of sorbitol; assay type: functional
[9] = system: Cryptococcus neoformans; test: Antifungal activity against Cryptococcus neoformans ATCC 208821 assessed as disruption of fungal wall by measuring fungal growth incubated for 24 hrs in the presence of sorbitol; assay type: functional
[10] = system: Candida tropicalis; test: Inhibition of Candida tropicalis ATCC 750 chitin synthase using UDP-GlcNAc as substrate at 300 ug/ml incubated for 1 hrs by absorbance based assay relative to control; details: dose 300.0 µg/ml
[11] = system: Aspergillus fumigatus; test: Synergistic antifungal activity against Aspergillus fumigatus GIMCC 3.19 assessed as fractional inhibitory concentration index incubated for 24 hrs in the presence of fluconazole by broth dilution based checkerboard method; assay type: functional
[12] = system: Aspergillus flavus; test: (§1) Synergistic antifungal activity against Aspergillus flavus ATCC 16870 assessed as fungal growth inhibition incubated for 24 hrs in the presence of fluconazole by broth dilution based checkerboard method; assay type: functional
[13] = system: Aspergillus fumigatus; test: (§2) Synergistic antifungal activity against Aspergillus fumigatus GIMCC 3.19 assessed as fungal growth inhibition incubated for 24 hrs in the presence of fluconazole by broth dilution based checkerboard method; assay type: functional
[14] = system: Cryptococcus neoformans; test: (§3) Synergistic antifungal activity against Cryptococcus neoformans ATCC 208821 assessed as fungal growth inhibition incubated for 24 hrs in the presence of fluconazole by broth dilution based checkerboard method; assay type: functional
[15] = system: Aspergillus flavus; test: Synergistic antifungal activity against Aspergillus flavus ATCC 16870 assessed as fractional inhibitory concentration index incubated for 24 hrs in the presence of fluconazole by broth dilution based checkerboard method; assay type: functional
[16] = system: Cryptococcus neoformans; test: Synergistic antifungal activity against Cryptococcus neoformans ATCC 208821 assessed as fractional inhibitory concentration index incubated for 24 hrs in the presence of fluconazole by broth dilution based checkerboard method; assay type: functional
[17] = system: Candida albicans; test: Synergistic antifungal activity against Candida albicans ATCC 76615 assessed as fractional inhibitory concentration index incubated for 24 hrs in the presence of fluconazole by broth dilution based checkerboard method; assay type: functional
[18] = system: Candida albicans; test: (§4) Synergistic antifungal activity against Candida albicans ATCC 76615 assessed as fungal growth inhibition incubated for 24 hrs in the presence of fluconazole by broth dilution based checkerboard method; assay type: functional
[19] = system: Candida albicans; test: as §4, with “4-(6-methoxy-2-oxo-1,2-dihydrospiro[benzo[d][1,3]oxazine-4,4'-piperidin]-1'-yl)-N-(2-methoxy-4-nitrophenyl)-4-oxobut-2-enamide” for “fluconazole”; assay type: functional
[20] = system: Candida albicans; test: as §4, with “4-(6-methoxy-2-oxo-1,2-dihydrospiro[benzo[d][1,3]oxazine-4,4'-piperidin]-1'-yl)-N-(4-methoxyphenyl)-4-oxobut-2-enamide” for “fluconazole”; assay type: functional
[21] = system: Aspergillus flavus; test: as §1, with “N-(2-chlorophenyl)-4-(6-methoxy-2-oxo-1,2-dihydrospiro[benzo[d][1,3]oxazine-4,4'-piperidin]-1'-yl)-4-oxobut-2-enamide” for “fluconazole”; assay type: functional
[22] = system: Aspergillus fumigatus; test: as §2, with “N-(2-chlorophenyl)-4-(6-methoxy-2-oxo-1,2-dihydrospiro[benzo[d][1,3]oxazine-4,4'-piperidin]-1'-yl)-4-oxobut-2-enamide” for “fluconazole”; assay type: functional
[23] = system: Cryptococcus neoformans; test: as §3, with “N-(4-bromophenyl)-4-(6-methoxy-2-oxo-1,2-dihydrospiro[benzo[d][1,3]oxazine-4,4'-piperidin]-1'-yl)-4-oxobut-2-enamide” for “fluconazole”; assay type: functional
[24] = system: Cryptococcus neoformans; test: as §3, with “N-(3-chloro-4-fluorophenyl)-4-(6-methoxy-2-oxo-1,2-dihydrospiro[benzo[d][1,3]oxazine-4,4'-piperidin]-1'-yl)-4-oxobut-2-enamide” for “fluconazole”; assay type: functional
[25] = system: Cryptococcus neoformans; test: as §3, with “4-(6-methoxy-2-oxo-1,2-dihydrospiro[benzo[d][1,3]oxazine-4,4'-piperidin]-1'-yl)-N-(4-methoxyphenyl)-4-oxobut-2-enamide” for “fluconazole”; assay type: functional
[26] = system: Candida albicans; test: as §4, with “N-(2-chlorophenyl)-4-(6-methoxy-2-oxo-1,2-dihydrospiro[benzo[d][1,3]oxazine-4,4'-piperidin]-1'-yl)-4-oxobut-2-enamide” for “fluconazole”; assay type: functional
[27] = system: Cryptococcus neoformans; test: Antifungal activity against fluconazole-resistant Cryptococcus neoformans ATCC 208821R assessed as fungal growth inhibition; assay type: functional
[28] = system: Aspergillus fumigatus; test: as §2, with “4-(6-methoxy-2-oxo-1,2-dihydrospiro[benzo[d][1,3]oxazine-4,4'-piperidin]-1'-yl)-4-oxo-N-phenylbut-2-enamide” for “fluconazole”; assay type: functional
[29] = system: Candida albicans; test: as §4, with “N-(4-bromophenyl)-4-(6-methoxy-2-oxo-1,2-dihydrospiro[benzo[d][1,3]oxazine-4,4'-piperidin]-1'-yl)-4-oxobut-2-enamide” for “fluconazole”; assay type: functional
[30] = system: Aspergillus flavus; test: Synergistic antifungal activity against Aspergillus flavus ATCC 16870 assessed as fungal growth inhibition incubated for 24 hrs in the presence of 4-(6-methoxy-2-oxo-1,2-dihydrospiro[benzo[d][1,3]oxazine-4,4'-piperidin]-1'-yl)-4-oxo-N-phenylbut-2-enamide by broth dilution based checkerboard method; assay type: functional
[31] = system: Aspergillus fumigatus; test: as §2, with “4-(6-methoxy-2-oxo-1,2-dihydrospiro[benzo[d][1,3]oxazine-4,4'-piperidin]-1'-yl)-N-(2-methoxy-4-nitrophenyl)-4-oxobut-2-enamide” for “fluconazole”; assay type: functional
[32] = system: Cryptococcus neoformans; test: as §3, with “4-(6-methoxy-2-oxo-1,2-dihydrospiro[benzo[d][1,3]oxazine-4,4'-piperidin]-1'-yl)-4-oxo-N-phenylbut-2-enamide” for “fluconazole”; assay type: functional
[33] = system: Candida albicans; test: as §4, with “N-(3-chloro-4-fluorophenyl)-4-(6-methoxy-2-oxo-1,2-dihydrospiro[benzo[d][1,3]oxazine-4,4'-piperidin]-1'-yl)-4-oxobut-2-enamide” for “fluconazole”; assay type: functional
[34] = system: Aspergillus fumigatus; test: as §2, with “N-(3-chloro-4-fluorophenyl)-4-(6-methoxy-2-oxo-1,2-dihydrospiro[benzo[d][1,3]oxazine-4,4'-piperidin]-1'-yl)-4-oxobut-2-enamide” for “fluconazole”; assay type: functional
[35] = system: Aspergillus fumigatus; test: as §2, with “4-(6-methoxy-2-oxo-1,2-dihydrospiro[benzo[d][1,3]oxazine-4,4'-piperidin]-1'-yl)-N-(4-methoxyphenyl)-4-oxobut-2-enamide” for “fluconazole”; assay type: functional
[36] = system: Aspergillus flavus; test: as §1, with “N-(4-bromophenyl)-4-(6-methoxy-2-oxo-1,2-dihydrospiro[benzo[d][1,3]oxazine-4,4'-piperidin]-1'-yl)-4-oxobut-2-enamide” for “fluconazole”; assay type: functional
[37] = system: Aspergillus fumigatus; test: as §2, with “N-(4-bromophenyl)-4-(6-methoxy-2-oxo-1,2-dihydrospiro[benzo[d][1,3]oxazine-4,4'-piperidin]-1'-yl)-4-oxobut-2-enamide” for “fluconazole”; assay type: functional
[38] = system: Aspergillus flavus; test: as §1, with “N-(3-chloro-4-fluorophenyl)-4-(6-methoxy-2-oxo-1,2-dihydrospiro[benzo[d][1,3]oxazine-4,4'-piperidin]-1'-yl)-4-oxobut-2-enamide” for “fluconazole”; assay type: functional
[39] = system: Candida albicans; test: Synergistic antifungal activity against Candida albicans ATCC 76615 assessed as fungal growth inhibition incubated for 24 hrs in the presence of 4-(6-methoxy-2-oxo-1,2-dihydrospiro[benzo[d][1,3]oxazine-4,4'-piperidin]-1'-yl)-4-oxo-N-phenylbut-2-enamide by broth dilution based checkerboard method; assay type: functional
[40] = system: Candida albicans; test: Antifungal activity against fluconazole-resistant Candida albicans ATCC 76615R assessed as fungal growth inhibition; assay type: functional
[41] = system: Aspergillus flavus; test: as §1, with “4-(6-methoxy-2-oxo-1,2-dihydrospiro[benzo[d][1,3]oxazine-4,4'-piperidin]-1'-yl)-N-(2-methoxy-4-nitrophenyl)-4-oxobut-2-enamide” for “fluconazole”; assay type: functional
[42] = system: Cryptococcus neoformans; test: as §3, with “4-(6-methoxy-2-oxo-1,2-dihydrospiro[benzo[d][1,3]oxazine-4,4'-piperidin]-1'-yl)-N-(2-methoxy-4-nitrophenyl)-4-oxobut-2-enamide” for “fluconazole”; assay type: functional
[43] = system: Aspergillus flavus; test: as §1, with “4-(6-methoxy-2-oxo-1,2-dihydrospiro[benzo[d][1,3]oxazine-4,4'-piperidin]-1'-yl)-N-(4-methoxyphenyl)-4-oxobut-2-enamide” for “fluconazole”; assay type: functional
[44] = system: Cryptococcus neoformans; test: as §3, with “N-(2-chlorophenyl)-4-(6-methoxy-2-oxo-1,2-dihydrospiro[benzo[d][1,3]oxazine-4,4'-piperidin]-1'-yl)-4-oxobut-2-enamide” for “fluconazole”; assay type: functional
[45] = Selectivity ratio of MIC for antifungal activity against Candida albicans ATCC 76615 assessed as disruption of fungal wall by measuring fungal growth incubated for 24 hrs in the presence of sorbitol to MIC for antifungal activity against Candida albicans ATCC 76615 assessed as fungal growth inhibition; assay type: functional
[46] = system: Candida albicans; test: Antifungal activity against micafungin-resistant Candida albicans ATCC 76615R assessed as fungal growth inhibition; assay type: functional

**Q.** With `NC(=O)OC[C@H](O)[C@@H](O)[C@H](N)C(=O)N[C@H](C(=O)O)[C@H]1O[C@@H](n2cc(CO)c(=O)[nH]c2=O)[C@H](O)[C@@H]1O` [POLYOXIN B] as the compound, how does the MIC [1] read?
**A.** 64 µg/mL (≈ 126 µM)

**Q.** And the MIC [2]?
**A.** 512 µg/mL

**Q.** What about the IC50 [3] of the same compound?
**A.** 80 µM

**Q.** What about the MIC [4] of the same compound?
**A.** 32 µg/mL (≈ 63.1 µM)

**Q.** And the MIC [5]?
**A.** 512 µg/mL

**Q.** And the MIC [6]?
**A.** 64 µg/mL (≈ 126 µM)

**Q.** What about the MIC [7] of the same compound?
**A.** 64 µg/mL (≈ 126 µM)

**Q.** What about the MIC [8] of the same compound?
**A.** > 512 µg/mL

**Q.** What about the MIC [9] of the same compound?
**A.** > 512 µg/mL

**Q.** What about the inhibition [10] of the same compound?
**A.** 85%

**Q.** What does the source list for `COc1ccc2c(c1)C1(CCN(C(=O)/C=C/C(=O)Nc3ccc([N+](=O)[O-])cc3OC)CC1)OC(=O)N2`?
**A.** MIC [1]: 64 µg/mL (≈ 129 µM); IC50 [3]: 100 µM; fractional inhibitory concentration index (FICI) [11]: 1.5; MIC [4]: 64 µg/mL (≈ 129 µM); MIC [12]: 16 µg/mL; MIC [13]: 32 µg/mL; MIC [14]: 32 µg/mL; fractional inhibitory concentration index (FICI) [15]: 1.37; MIC [5]: 512 µg/mL; fractional inhibitory concentration index (FICI) [16]: 1; fractional inhibitory concentration index (FICI) [17]: 1.13; MIC [6]: 42.7 µg/mL (≈ 85.9 µM); MIC [7]: 128 µg/mL (≈ 258 µM); MIC [18]: 16 µg/mL; MIC [8]: > 512 µg/mL; MIC [9]: > 512 µg/mL; inhibition [10]: 86%

**Q.** Which results are given for `OC(Cn1cncn1)(Cn1cncn1)c1ccc(F)cc1F` [FLUCONAZOLE]?
**A.** MIC [1]: 32 µg/mL (≈ 104 µM); MIC [19]: 16 µg/mL; MIC [20]: 16 µg/mL; MIC [21]: 16 µg/mL; MIC [22]: 16 µg/mL; MIC [23]: 16 µg/mL; MIC [4]: 16 µg/mL (≈ 52.2 µM); MIC [24]: 4 µg/mL; MIC [25]: 16 µg/mL; MIC [26]: 4 µg/mL; MIC [27]: 256 µg/mL (≈ 836 µM); MIC [28]: 4 µg/mL; MIC [29]: 4 µg/mL; MIC [30]: 8 µg/mL; MIC [31]: 16 µg/mL; MIC [32]: 16 µg/mL; MIC [33]: 16 µg/mL; MIC [34]: 4 µg/mL; MIC [6]: 16 µg/mL (≈ 52.2 µM); MIC [7]: 16 µg/mL (≈ 52.2 µM); MIC [35]: 16 µg/mL; MIC [36]: 32 µg/mL; MIC [37]: 16 µg/mL; MIC [38]: 16 µg/mL; MIC [39]: 8 µg/mL; MIC [40]: 256 µg/mL (≈ 836 µM); MIC [41]: 16 µg/mL; MIC [42]: 16 µg/mL; MIC [43]: 16 µg/mL; MIC [44]: 4 µg/mL

**Q.** Which results are given for `COc1cc(Br)c(NC(=O)/C=C/C(=O)N2CCC3(CC2)OC(=O)Nc2ccc(OC)cc23)c(Br)c1`?
**A.** MIC [1]: 64 µg/mL (≈ 105 µM); MIC [2]: 512 µg/mL; IC50 [3]: 110 µM; MIC [4]: 128 µg/mL (≈ 210 µM); Ratio [45]: 8; MIC [27]: 64 µg/mL (≈ 105 µM); MIC [46]: 64 µg/mL (≈ 105 µM); MIC [6]: 256 µg/mL (≈ 420 µM); MIC [7]: 64 µg/mL (≈ 105 µM); MIC [40]: 64 µg/mL (≈ 105 µM); MIC [9]: 512 µg/mL; inhibition [10]: 72%
